Our source for the Ki values is patent US6620839B2, “1,3-disubstituted and 1,3,3-trisubstituted pyrrolidines as histamine-3 receptor ligands and their therapeutic applications” (Abbott Laboratories, priority 2000, dated 2003).

The target of the assay is T1, histamine-3 receptor (Rattus norvegicus, UniProt Q9QYN8).
T1 construct: from tissue; host or cells: male Sprague-Dawley rat brain cortex membranes
Briefly: Histamine-3 receptor binding, (3H)-N-α-methylhistamine displacement in rat cortical membranes. The conditions noted are these: male Sprague-Dawley rat brain cortical membranes; (3H)-N-α-methylhistamine ~0.6 nM; 30 minutes at 25° C.; Cheng-Prusoff. In short, it runs like this: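 Male Sprague-Dawley rat cortical membranes incubated 30 min at 25 °C with compound dilutions and [3H]-N-α-methylhistamine. Nonspecific binding defined with 3 μM thioperamide. Filtration and scintillation counting used; Ki from Hill transformation and Cheng-Prusoff equation.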

T1 sequence (Q9QYN8 whole entry): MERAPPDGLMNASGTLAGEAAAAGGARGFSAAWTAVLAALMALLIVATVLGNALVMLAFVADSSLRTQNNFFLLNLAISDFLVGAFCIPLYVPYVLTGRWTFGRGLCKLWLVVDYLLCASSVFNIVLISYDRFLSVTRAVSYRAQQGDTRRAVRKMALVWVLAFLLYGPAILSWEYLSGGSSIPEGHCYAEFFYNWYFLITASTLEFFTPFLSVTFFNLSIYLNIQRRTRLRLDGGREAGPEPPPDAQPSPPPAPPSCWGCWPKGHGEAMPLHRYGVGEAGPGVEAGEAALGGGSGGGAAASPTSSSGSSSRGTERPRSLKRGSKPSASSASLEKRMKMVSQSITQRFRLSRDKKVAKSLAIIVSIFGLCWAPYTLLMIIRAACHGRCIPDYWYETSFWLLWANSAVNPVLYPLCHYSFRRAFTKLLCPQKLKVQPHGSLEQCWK

In general, Ki refers to the equilibrium dissociation constant of an inhibitor or competing ligand from its target. High values mean weaker binding, low ones tighter binding. Consider `N#Cc1ccc(-c2ccc(OCCCN3CC[C@@H](NS(=O)(=O)c4cc(Cl)cc(Cl)c4)C3)cc2)cc1` [Example 32, 3,5-dichloro-N-((3R)-1-{3-[(4′-cyano[1,1′-biphenyl]-4-yl)oxy]propyl}pyrrolidinyl)benzenesulfonamide], for which the Ki came to 99 nM.

As to `Cn1cnc(S(=O)(=O)N[C@@H]2CCN(CCCOc3ccc(C(=O)C4CC4)cc3)C2)c1` [Example 80, N-((3R)-1-{3-[4-(cyclopropylcarbonyl)phenoxy]propyl}pyrrolidinyl)-1-methyl-1H-imidazole-4-sulfonamide], affinity was put at a Ki of 10 nM.

For `O=C(c1ccc(OCCCN2CC[C@@H](NS(=O)(=O)c3cccc(C(F)(F)F)c3)C2)cc1)C1CC1` [Example 62, N-((3R)-1-{3-[4-(cyclopropylcarbonyl)phenoxy]propyl}pyrrolidinyl)-3-(trifluoromethyl)benzenesulfonamide], the inhibitory constant (Ki) came to 6.4 nM.

`N#Cc1ccc(S(=O)(=O)N[C@@H]2CCN(CCCOc3ccc(C(=O)C4CC4)cc3)C2)cc1` [Example 11, 4-cyano-N-((3R)-1-{3-[4-(cyclopropylcarbonyl)phenoxy]propyl}pyrrolidinyl)benzenesulfonamide]: the affinity, expressed as Ki, was 4 nM.

In turn, `CN(C)[C@@H]1CCN(CCCOc2ccc(-c3ccc(C#N)c(F)c3)cc2)C1` [Example 166, 4′-{3-[(3R)-3-(dimethylamino)-1-pyrrolidinyl}propoxy]-3-fluoro-1,1′-biphenyl-4-carbonitrile] showed a Ki of 73 nM.

On to `CC(C)(C)NC(=O)N[C@@H]1CCN(CCCOc2ccc(-c3ccc(C#N)cc3)cc2)C1` [Example 137, N-(tert-butyl)-N′-((3R)-1-{3-[(4′-cyano[1,1′-biphenyl]-4-yl)oxy]propyl}pyrrolidinyl)urea], for which the affinity, expressed as Ki, was 196 nM.

For the compound `Cc1ccc(S(=O)(=O)N[C@@H]2CCN(CCCOc3ccc(-c4ccc(C#N)cc4)cc3)C2)cc1Cl` [Example 43, 3-chloro-N-((3R)-1-{3-[(4′-cyano[1,1′-biphenyl]-4-yl)oxy]propyl}pyrrolidinyl)-4-methylbenzenesulfonamide], the Ki stood at 37 nM.

Regarding `Cc1ccccc1S(=O)(=O)N[C@@H]1CCN(CCCOc2ccc(C(=O)C3CC3)cc2)C1` [Example 64, N-((3R)-1-{3-[4-(cyclopropylcarbonyl)phenoxy]propyl}pyrrolidinyl)-2-methylbenzenesulfonamide], the Ki worked out at 11 nM.

In turn, `CC(C)(C)c1ccc(S(=O)(=O)N[C@@H]2CCN(CCCOc3ccc(-c4ccc(C#N)cc4)cc3)C2)cc1` [Example 21, 4-tert-butyl-N-((3R)-1-{3-[(4′-cyano[1,1′-biphenyl]-4-yl)oxy]propyl}pyrrolidinyl)benzenesulfonamide] had a Ki of 22 nM.

The compound `COc1ccc(S(=O)(=O)N[C@@H]2CCN(CCCOc3ccc(C(=O)C4CC4)cc3)C2)cc1` [Example 59, N-((3R)-1-{3-[4-(cyclopropylcarbonyl)phenoxy]propyl}pyrrolidinyl)-4-methoxybenzenesulfonamide] yielded an inhibition constant Ki of 3 nM.

The compound `Cc1cc(-c2ccc(OCCCN3CC[C@@H](N(C)C)C3)cc2)ccc1C#N` [Example 164, 4′-{3-[(3R)-3-(dimethylamino)-1-pyrrolidinyl]propoxy}-3-methyl-1,1′-biphenyl-4-carbonitrile] yielded an inhibitory constant (Ki) of 48 nM.

`CC(C)S(=O)(=O)N[C@@H]1CCN(CCCOc2ccc(-c3ccc(C#N)cc3)cc2)C1` [Example 144]: the Ki was 21 nM.

In the case of `Cc1ccccc1S(=O)(=O)N[C@@H]1CCN(CCCOc2ccc(-c3ccc(C#N)cc3)cc2)C1` [Example 25], the Ki worked out at 30 nM.

`N#Cc1ccc(-c2ccc(OCCCN3CC[C@@H](NS(=O)(=O)c4ccc5ccncc5c4)C3)cc2)cc1` [Example 52] had a Ki of 15 nM.

`COc1ccc(OC)c(S(=O)(=O)N[C@@H]2CCN(CCCOc3ccc(-c4ccc(C#N)cc4)cc3)C2)c1` [Example 24] had a Ki of 43 nM.

`O=C(c1ccc(OCCCN2CC[C@@H](NS(=O)(=O)c3ccccc3OC(F)(F)F)C2)cc1)C1CC1` [Example 89, N-((3R)-1-{3-[4-(cyclopropylcarbonyl)phenoxy]propyl}pyrrolidinyl)-2-(trifluoromethoxy)benzenesulfonamide] yielded a Ki of 11 nM.

Turning to `N#Cc1ccc(-c2ccc(OCCCN3CC[C@@H](NS(=O)(=O)C=Cc4ccccc4)C3)cc2)cc1` [Example 44], the affinity, expressed as Ki, was 52 nM.

Take `CCc1ccc(S(=O)(=O)N[C@@H]2CCN(CCCOc3ccc(C(=O)C4CC4)cc3)C2)cc1` [Example 66, N-((3R)-1-{3-[4-(cyclopropylcarbonyl)phenoxy]propyl}pyrrolidinyl)-4-ethylbenzenesulfonamide]: the inhibition constant (Ki) is 4.6 nM.

In the case of `CC(C)c1ccc(S(=O)(=O)N[C@@H]2CCN(CCCOc3ccc(-c4ccccn4)cc3)C2)cc1` [Example 102, 4-isopropyl-N-((3R)-1-{3-[4-(2-pyridinyl)phenoxy]propyl}pyrrolidinyl)benzenesulfonamide], the Ki turned out to be 112 nM.

In turn, `CC(C)(C)OC(=O)N[C@H]1CCN(CCOc2ccc(-c3ccc(C#N)cc3)cc2)C1` [Example 100, tert-butyl (3S)-1-{2-[(4′-cyano[1,1′-biphenyl]-4-yl)oxy]ethyl}pyrrolidinylcarbamate] displayed an inhibitory constant (Ki) of 1630 nM.

With `Cc1ccc(S(=O)(=O)N[C@@H]2CCN(CCCOc3ccc(-c4ccc(C#N)cc4)cc3)C2)cc1` [Example 22], the Ki is 12 nM.

Turning to `N#Cc1ccc(-c2ccc(OCCCN3CC[C@@H](NS(=O)(=O)c4ccccc4OC(F)(F)F)C3)cc2)cc1` [Example 45], the Ki was found to be 127 nM.

In turn, `CC(=O)c1ccc(OCCCN2CC[C@@H](NC(=O)c3ccc(C#N)cc3)C2)cc1` [Example 14, N-{(3R)-1-[3-(4-acetylphenoxy)propyl]pyrrolidinyl}-4-cyanobenzamide] displayed a Ki of 40 nM.

With “1-(4-{3-[(3R)-3-aminopyrrolidinyl]propoxy}phenyl)-1-propanone [Example 7]”, the Ki came out at 31 nM.

On to `N#Cc1ccc(-c2ccc(OCCCN3CC[C@@H](N(C(=O)N4CCCC4)C(=O)N4CCCC4)C3)cc2)cc1` [Example 149], for which the inhibition constant (Ki) was found to be 329 nM.

`N#Cc1ccc(-c2ccc(OCCCN3CC[C@@H](NS(=O)(=O)c4cccc5cccnc45)C3)cc2)cc1` [Example 40] had a Ki of 51 nM.

Consider `N#Cc1ccc(-c2ccc(OCCCN3CC[C@@H](NS(=O)(=O)c4ccc(F)cc4F)C3)cc2)cc1` [Example 51], for which the affinity, expressed as Ki, was 9.3 nM.

`O=C(c1ccc(OCCCN2CC[C@@H](NS(=O)(=O)c3ccc(C(F)(F)F)cc3)C2)cc1)C1CC1` [Example 92, N-((3R)-1-{3-[4-(cyclopropylcarbonyl)phenoxy]propyl}pyrrolidinyl)-4-(trifluoromethyl)benzenesulfonamide]: the affinity, expressed as Ki, was 4.9 nM.

`CC(=O)c1ccc(OCCCN2CC[C@@H](NS(=O)(=O)c3ccc(F)cc3F)C2)cc1` [Example 74, N-{(3R)-1-[3-(4-acetylphenoxy)propyl]pyrrolidinyl}-2,4-difluorobenzenesulfonamide] came in with a Ki of 5.6 nM.

For `CN(C)[C@@H]1CCN(CCCOc2ccc(-c3ccc(C#N)cc3)cc2F)C1` [Example 167, 4′-{3-[(3R)-3-(dimethylamino)-1-pyrrolidinyl]propoxy}-3′-fluoro-1,1′-biphenyl-4-carbonitrile], the affinity corresponds to a Ki of 9 nM.

In turn, `CC(=O)c1ccc(OCCCN2CC[C@@H](NC(=O)c3csc(-c4cccnc4)n3)C2)cc1` [Example 4, N-{(3R)-1-[3-(4-acetylphenoxy)propyl]pyrrolidinyl}-2-(3-pyridinyl)-1,3-thiazole-4-carboxamide] registered a Ki of 55 nM.

Consider `CN(C)[C@@H]1CCN(CCCOc2ccc(-c3ccc(C#N)cc3)cc2I)C1` [Example 169, 4′-{3-[(3R)-3-(dimethylamino)-1-pyrrolidinyl]propoxy}-3 ′-iodo-1,1′-biphenyl-4-carbonitrile], for which affinity was put at a Ki of 206 nM.

The compound `CC(C)c1ccc(S(=O)(=O)N(C)[C@@H]2CCN(CCCOc3ccc(-c4ccc(C#N)cc4)cc3)C2)cc1` [Example 127, N-((3R)-1-{3-[(4′-cyano[1,1′-biphenyl]-4-yl)oxy]propyl}pyrrolidinyl)-4-isoproply-N-methylbenzensulfonamide] displayed a Ki of 16 nM.

In turn, `CCc1ccc(S(=O)(=O)N[C@@H]2CCN(CCCOc3ccc(-c4ccc(C#N)cc4)cc3)C2)cc1` [Example 27] showed a Ki of 18 nM.

`N#Cc1ccc(-c2ccc(OCCCN3CC[C@@H](NS(=O)(=O)c4ccccc4)C3)cc2)cc1` [Example 15]: the affinity corresponds to a Ki of 7.3 nM.

In turn, `N#Cc1ccc(-c2ccc(OCCCN3CC[C@@H](NS(=O)(=O)c4ccc(OC(F)(F)F)cc4)C3)cc2)cc1` [Example 50] registered a Ki of 60 nM.

`N#Cc1ccc(-c2ccc(OCCCN3CC[C@@H](NS(=O)(=O)c4ccc(Cl)cc4)C3)cc2)cc1` [Example 18, 4-chloro-N-((3R)-1-{3-[(4′-cyano[1,1′-biphenyl]-4-yl)oxy]propyl}pyrrolidinyl)benzenesulfonamide]: the Ki is 29 nM.

`CC(C)(C)c1ccc(S(=O)(=O)N[C@@H]2CCN(CCCOc3ccc(C(=O)C4CC4)cc3)C2)cc1` [Example 60, 4-tert-butyl-N-((3R)-1-{3-[4-(cyclopropylcarbonyl)phenoxy]propyl}pyrrolidinyl)benzenesulfonamide]: the affinity, expressed as Ki, was 5.2 nM.

For `CC(C)(C)CC(=O)N(C(=O)CC(C)(C)C)[C@@H]1CCN(CCCOc2ccc(-c3ccc(C#N)cc3)cc2)C1` [Example 147], the Ki was found to be 209 nM.

Consider `CC(=O)c1ccc(OCCCN2CC[C@@H](NS(=O)(=O)c3ccc(Cl)c(Cl)c3)C2)cc1` [Example 77, N-{(3R)-1-[3-(4-acetylphenoxy)propyl]pyrrolidinyl}-3,4-dichlorobenzenesulfonamide], for which the affinity, expressed as Ki, was 5.3 nM.

For `CN([C@@H]1CCN(CCCOc2ccc(-c3ccc(C#N)cc3)cc2)C1)S(=O)(=O)c1ccc(C#N)cc1` [Example 126, 4-cyano-N-((3R)-1-{3-[(4′-cyano[1,1′-biphenyl]-4-yl)oxy]propyl}pyrrolidinyl)-N-methylbenzenesulfonamide], the Ki was determined as 4.6 nM.
